Experimental data published in the supplement of paper PMC10307832.

Key:
Experiment in all cases: relative viability (nuclei count vs DMSO), 5 days (fraction); higher = more cells survive
AZ23 = compound: CC(C)Oc1cc(Nc2nc(N[C@@H](C)c3ccc(F)cn3)ncc2Cl)n[nH]1 [AZ23]
Procedure, shortened: (§1)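 On vehicle-anchored 1536-well plates, lung cancer cell lines held overnight at 37 °C were pinned with five library-drug doses (not always all listed) spaced by √10. With no medium change over 5 days, they were then fixed, permeabilised and Hoechst-stained in one step and imaged at 4×. MetaXpress counted nuclei, and viability is the median across plates of treated-well over vehicle-well nuclei. Acceptance needed control CV below 25% and at least one doubling.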

Vatalanib = compound: Clc1ccc(Nc2nnc(Cc3ccncc3)c3ccccc23)cc1 [Vatalanib]
Procedure, shortened: as §1

HG-5-88-01 = compound: CC(C)S(=O)(=O)C1=CC=CC=C1NC2=NC(=NC(=C2Cl)N)NC3=C(C=C(C=C3)N4CCC(CC4)C(=O)N)OC [HG-5-88-01]
Procedure, shortened: as §1

[1] = compound: C[C@@H]1CN(CC(=O)Nc2ccc3c(c2)Cc2cccc(-c4cc(=O)cc(N5CCOCC5)o4)c2S3)C[C@H](C)O1
Procedure, shortened: as §1

Embelin = compound: CCCCCCCCCCCC1=C(O)C(=O)C=C(O)C1=O [Embelin]
Procedure, shortened: as §1

Work on NCI-H661 yielded a relative viability (AZ23; 0.01 µM) of 1.05, a relative viability (AZ23; 0.03162 µM) of 1.04 and a relative viability (AZ23; 0.3162 µM) of 0.967. For the same cell line, the relative viability (Vatalanib; 0.04 µM) was 0.975, the relative viability (Vatalanib; 0.1265 µM) was 0.971 and the relative viability (Vatalanib; 0.4 µM) was 0.983. The relative viability (Vatalanib; 1.265 µM) was 0.906, the relative viability (Vatalanib; 4 µM) was 0.988 and the relative viability (HG-5-88-01; 0.04 µM) was 0.992. The relative viability (HG-5-88-01; 0.1265 µM) was 1.01, the relative viability (HG-5-88-01; 0.4 µM) was 1.1 and the relative viability (HG-5-88-01; 1.265 µM) was 1.01. For the same cell line, the relative viability (HG-5-88-01; 4 µM) was 1.01, the relative viability ([1]; 0.04 µM) was 0.864 and the relative viability ([1]; 0.1265 µM) was 0.97. For the same cell line, the relative viability ([1]; 0.4 µM) was 0.951, the relative viability ([1]; 4 µM) was 0.916 and the relative viability (Embelin; 0.08 µM) was 1.01. It also gave a relative viability (Embelin; 0.8 µM) of 1.06, a relative viability (Embelin; 2.53 µM) of 1.02 and a relative viability (Embelin; 8 µM) of 1.04.
NCI-H727 showed a relative viability (AZ23; 0.01 µM) of 0.832, a relative viability (AZ23; 0.03162 µM) of 0.94 and a relative viability (AZ23; 0.3162 µM) of 0.973. It also gave a relative viability (Vatalanib; 0.04 µM) of 0.943, a relative viability (Vatalanib; 0.1265 µM) of 0.858 and a relative viability (Vatalanib; 0.4 µM) of 0.899. For the same cell line, the relative viability (Vatalanib; 1.265 µM) was 0.832, the relative viability (Vatalanib; 4 µM) was 0.887 and the relative viability (HG-5-88-01; 0.04 µM) was 1.08. For the same cell line, the relative viability (HG-5-88-01; 0.1265 µM) was 0.883, the relative viability (HG-5-88-01; 0.4 µM) was 0.958 and the relative viability (HG-5-88-01; 1.265 µM) was 0.606. For the same cell line, the relative viability (HG-5-88-01; 4 µM) was 0.63, the relative viability ([1]; 0.04 µM) was 0.93 and the relative viability ([1]; 0.1265 µM) was 0.885. The relative viability ([1]; 0.4 µM) was 0.991, the relative viability ([1]; 4 µM) was 0.882 and the relative viability (Embelin; 0.08 µM) was 1.03. It also gave a relative viability (Embelin; 0.8 µM) of 0.935, a relative viability (Embelin; 2.53 µM) of 0.958 and a relative viability (Embelin; 8 µM) of 0.976.
With NCI-H838 the relative viability (AZ23; 0.01 µM) was 0.987, the relative viability (AZ23; 0.03162 µM) was 0.993 and the relative viability (AZ23; 0.3162 µM) was 1. The relative viability (Vatalanib; 0.04 µM) was 1.02, the relative viability (Vatalanib; 0.1265 µM) was 0.928 and the relative viability (Vatalanib; 0.4 µM) was 1.09. It also gave a relative viability (Vatalanib; 1.265 µM) of 0.945, a relative viability (Vatalanib; 4 µM) of 0.942 and a relative viability (HG-5-88-01; 0.04 µM) of 0.978. It also gave a relative viability (HG-5-88-01; 0.1265 µM) of 1.03, a relative viability (HG-5-88-01; 0.4 µM) of 0.79 and a relative viability (HG-5-88-01; 1.265 µM) of 0.676. For the same cell line, the relative viability (HG-5-88-01; 4 µM) was 0.655, the relative viability ([1]; 0.04 µM) was 0.887 and the relative viability ([1]; 0.1265 µM) was 0.93. For the same cell line, the relative viability ([1]; 0.4 µM) was 0.883, the relative viability ([1]; 4 µM) was 0.813 and the relative viability (Embelin; 0.08 µM) was 0.982. It also gave a relative viability (Embelin; 0.8 µM) of 1.05, a relative viability (Embelin; 2.53 µM) of 1.06 and a relative viability (Embelin; 8 µM) of 0.896.
NCI-H1299 showed a relative viability (AZ23; 0.01 µM) of 1.06, a relative viability (AZ23; 0.03162 µM) of 1.01 and a relative viability (AZ23; 0.3162 µM) of 1.1. For the same cell line, the relative viability (Vatalanib; 0.04 µM) was 1.05, the relative viability (Vatalanib; 0.1265 µM) was 1.01 and the relative viability (Vatalanib; 0.4 µM) was 1.02. The relative viability (Vatalanib; 1.265 µM) was 1, the relative viability (Vatalanib; 4 µM) was 1.01 and the relative viability (HG-5-88-01; 0.04 µM) was 0.987. It also gave a relative viability (HG-5-88-01; 0.1265 µM) of 1.02, a relative viability (HG-5-88-01; 0.4 µM) of 0.992 and a relative viability (HG-5-88-01; 1.265 µM) of 0.99. It also gave a relative viability (HG-5-88-01; 4 µM) of 1.02, a relative viability ([1]; 0.04 µM) of 1.05 and a relative viability ([1]; 0.1265 µM) of 0.989. For the same cell line, the relative viability ([1]; 0.4 µM) was 1, the relative viability ([1]; 4 µM) was 0.898 and the relative viability (Embelin; 0.08 µM) was 1.04. For the same cell line, the relative viability (Embelin; 0.8 µM) was 1.05, the relative viability (Embelin; 2.53 µM) was 0.994 and the relative viability (Embelin; 8 µM) was 1.02.
In the case of NCI-H1355, the relative viability (AZ23; 0.01 µM) is reported as 1.14, the relative viability (AZ23; 0.03162 µM) is reported as 1.03 and the relative viability (AZ23; 0.3162 µM) is reported as 1.03. For the same cell line, the relative viability (Vatalanib; 0.04 µM) was 1.03, the relative viability (Vatalanib; 0.1265 µM) was 0.99 and the relative viability (Vatalanib; 0.4 µM) was 1.07. It also gave a relative viability (Vatalanib; 1.265 µM) of 0.938, a relative viability (Vatalanib; 4 µM) of 0.969 and a relative viability (HG-5-88-01; 0.04 µM) of 1.01. For the same cell line, the relative viability (HG-5-88-01; 0.1265 µM) was 1.06, the relative viability (HG-5-88-01; 0.4 µM) was 0.932 and the relative viability (HG-5-88-01; 1.265 µM) was 0.943. The relative viability (HG-5-88-01; 4 µM) was 0.698, the relative viability ([1]; 0.04 µM) was 0.984 and the relative viability ([1]; 0.1265 µM) was 0.964. The relative viability ([1]; 0.4 µM) was 0.959, the relative viability ([1]; 4 µM) was 0.852 and the relative viability (Embelin; 0.08 µM) was 0.996. It also gave a relative viability (Embelin; 0.8 µM) of 1.16, a relative viability (Embelin; 2.53 µM) of 1.03 and a relative viability (Embelin; 8 µM) of 0.775.
NCI-H1395 showed a relative viability (AZ23; 0.03162 µM) of 1.01, a relative viability (AZ23; 0.3162 µM) of 0.849 and a relative viability (Vatalanib; 0.04 µM) of 0.939. For the same cell line, the relative viability (Vatalanib; 0.1265 µM) was 0.871, the relative viability (Vatalanib; 0.4 µM) was 0.863 and the relative viability (Vatalanib; 1.265 µM) was 0.813. For the same cell line, the relative viability (Vatalanib; 4 µM) was 0.885, the relative viability (HG-5-88-01; 0.04 µM) was 0.9 and the relative viability (HG-5-88-01; 0.1265 µM) was 0.97. The relative viability (HG-5-88-01; 0.4 µM) was 0.921, the relative viability (HG-5-88-01; 1.265 µM) was 0.953 and the relative viability (HG-5-88-01; 4 µM) was 0.876. The relative viability ([1]; 0.04 µM) was 0.854, the relative viability ([1]; 0.1265 µM) was 0.816 and the relative viability ([1]; 0.4 µM) was 0.761. The relative viability ([1]; 4 µM) was 0.999, the relative viability (Embelin; 0.08 µM) was 0.941 and the relative viability (Embelin; 0.8 µM) was 1.15. The relative viability (Embelin; 2.53 µM) was 0.857 and the relative viability (Embelin; 8 µM) was 0.617.
Cell Line NCI-H1437 has a relative viability (AZ23; 0.01 µM) of 1.02, a relative viability (AZ23; 0.03162 µM) of 1.09 and a relative viability (AZ23; 0.3162 µM) of 1. It also gave a relative viability (Vatalanib; 0.04 µM) of 0.984, a relative viability (Vatalanib; 0.1265 µM) of 0.987 and a relative viability (Vatalanib; 0.4 µM) of 1.01. The relative viability (Vatalanib; 1.265 µM) was 0.938, the relative viability (Vatalanib; 4 µM) was 0.969 and the relative viability (HG-5-88-01; 0.04 µM) was 1.04. It also gave a relative viability (HG-5-88-01; 0.1265 µM) of 1.04, a relative viability (HG-5-88-01; 0.4 µM) of 0.995 and a relative viability (HG-5-88-01; 1.265 µM) of 0.917. The relative viability (HG-5-88-01; 4 µM) was 1.01, the relative viability ([1]; 0.04 µM) was 0.977 and the relative viability ([1]; 0.1265 µM) was 0.995. It also gave a relative viability ([1]; 0.4 µM) of 1.06, a relative viability ([1]; 4 µM) of 0.885 and a relative viability (Embelin; 0.08 µM) of 0.961. It also gave a relative viability (Embelin; 0.8 µM) of 1.11, a relative viability (Embelin; 2.53 µM) of 1.04 and a relative viability (Embelin; 8 µM) of 0.709.
Work on NCI-H1563 yielded a relative viability (AZ23; 0.01 µM) of 1.06, a relative viability (AZ23; 0.03162 µM) of 1.02 and a relative viability (AZ23; 0.3162 µM) of 0.967. It also gave a relative viability (Vatalanib; 0.04 µM) of 1.04, a relative viability (Vatalanib; 0.1265 µM) of 0.889 and a relative viability (Vatalanib; 0.4 µM) of 1.03. It also gave a relative viability (Vatalanib; 1.265 µM) of 0.918, a relative viability (Vatalanib; 4 µM) of 0.937 and a relative viability (HG-5-88-01; 0.04 µM) of 1.02. It also gave a relative viability (HG-5-88-01; 0.1265 µM) of 0.932, a relative viability (HG-5-88-01; 0.4 µM) of 0.974 and a relative viability (HG-5-88-01; 1.265 µM) of 0.811. The relative viability (HG-5-88-01; 4 µM) was 1.19, the relative viability ([1]; 0.04 µM) was 0.947 and the relative viability ([1]; 0.1265 µM) was 0.901. It also gave a relative viability ([1]; 0.4 µM) of 0.941, a relative viability ([1]; 4 µM) of 0.935 and a relative viability (Embelin; 0.08 µM) of 0.946. It also gave a relative viability (Embelin; 0.8 µM) of 1.17, a relative viability (Embelin; 2.53 µM) of 0.978 and a relative viability (Embelin; 8 µM) of 0.978.
